# “Also recorded” adds a separate entry of the source.
# Columns and labels:
# ARPE19 cells [1] = assay: CellTiter-Glo luminescent cell viability assay, 15 μM 7KCh-induced cytotoxicity; type: cell-based, human; settings: 24 hr, CellTiter-Glo
# Protocol: Error bar: standard deviation, n=4.
# CellTiter-Glo® Luminescent Cell Viability Assay is a homogeneous method of determining the number of viable cells in culture based on quantitation of the ATP (luminescent signal) present, an indicator of metabolically active cells.
# The contents in a plate were mixed for 2 min on an orbital shaker to induce cell lysis.
# 5) The plate was allowed to incubate at room temperature for 10 min to stabilize luminescent signal.
# ARPE-19 cells [2] = assay: qRT-PCR of inflammatory cytokines and ER stress markers, 7KCh-mediated inflammation; type: cell-based
# Protocol: FIGS. 13A-13D depict mRNA expressions of (A) VEGF, (B) IL-6, (C) GRP78, and (D) CHOP in response to 8 μM 7KCh with or without 1 μM long-chain fatty acids. Error bars indicate the standard deviations. *p<0.05 comparing to 7KCh, n=3. Two-tailed Student's t-test.
# (§1) FIGS. 14A-14D depict mRNA expressions of (A) VEGF, (B) IL-1b, (C) IL-6, and (D) IL-8 in response to 8 μM 7KCh, 1 μM sterculic acid, 1 μM stearic acid, or the combinations of 7KCh with either sterculic acid or stearic acid. Error bars indicate the standard deviations. *p<0.05 comparing to 7KCh, n=4. Two-tailed Student's t-test.
# as §1, with “15A-15D” for “14A-14D”, “TNF-α,” for “VEGF,”, “TGF-β1,” for “IL-1b,”, “GRP78,” for “IL-6,”, “CHOP” for “IL-8”, “n=3-4.” for “n=4.”
# (§2) ARPE-19 cells were seeded in 24-well plates with 1×10^5 cells per well and allowed to recover for 16-24 hr. Once confluency reached approximately 90%, the effect of the fatty acids against 7KCh-mediated cell death was examined 24 hr after incubation in serum-free medium with 12 μM 7KCh. Fatty acids were tested at 0.1, 0.5, 1, 5 and 10 μM concentrations. The effects of the fatty acids against 7KCh-mediated inflammation and ER stress were examined by incubating cells in 1 μM fatty acids with either 8 μM 7KCh (24 hr for quantitative real-time PCR (qRT-PCR), 24 and 48 hr for immunoblot), or 6 μM 7KCh for 48 hr (for ELISA). Three individual experiments were performed for each treatment with quadruplicate measurements performed for each experiment in 24-well plates.
# (§3) The RNA was extracted using RNeasy Mini Kit (Qiagen, Valencia, Calif.). The reverse transcription was performed with reagents and kits from Invitrogen. Quantification of mRNA expression was performed using the Taqman gene expression assays and the following primers (VEGFa, Hs00173626_m1; IL-1β, Hs01555413_m1; IL-6, Hs00174131_m1; IL-8, Hs00174103_m1; IκBα, Hs00153283_m1; GRP78, Hs99999174_m1; CHOP, Hs01090850_m1; NOX2, Hs00166163_m1; NOX4, Hs01558199_m1; SCD, Hs00748952 s1; TNF-α, Hs00174128_m1; TGF-β1, Hs00998133_m1; GAPD, 4352934e). GAPD expression was used as an endogenous standard. All qRT-PCR experiments were measured in triplicates in an ABI 7500 Real-Time PCR Instrument (Applied Biosystems, Foster City, Calif.). The results of each treatment were normalized and presented in percentage relative to the vehicle-only control.
# ARPE-19 cells [3] = assay: ELISA of secreted VEGF, IL-6, IL-8 in conditioned medium; type: cell-based; settings: 6 μM 7KCh alone or with 1 μM fatty acid, 48 hr
# Protocol: FIGS. 16A-16E depict the secreted protein levels of (A) VEGF, (B) IL-6, and (C) IL-8 were measure by ELISA 48 hr after treatment with 6 μM 7KCh, 1 μM sterculic acid, 1 μM stearic acid, or the combinations of 7KCh with either sterculic acid or stearic acid. Error bars indicate the standard deviations. *p<0.05 comparing to 7KCh, n=3. Two-tailed Student's t-test. The expressions of GRP78 and CHOP were shown by immunoblots (D) 24 hr or (E) 48 hr after treatment with 8 μM 7KCh, 1 μM sterculic acid, 1 μM stearic acid, or the combinations of 7KCh with either sterculic acid or stearic acid.
# as §2
# The levels of secreted VEGF, IL-6, IL-8, and TNF-α in conditioned medium of ARPE-19 cell cultures were measured 48 hr after treatments of 6 μM 7KCh and 1 μM fatty acids using the Quantkine ELISA kits from R&D systems (Minneapolis, Minn.). The protein levels were measured in triplicates. The ELISA results were quantified using an Envision multilable plate reader (PerkinElmer, Covina, Calif.) and presented in percentage relative to the vehicle-only control.
# [4] = system: stearoyl-CoA desaturase (SCD); assay: SCD mRNA expression (qRT-PCR); type: cell-based; settings: 4 μM 7KCh, 24 hr
# Protocol: FIGS. 18A and 18B depict (A) Dose response of SCD mRNA inductions by 0-12 μM 7KCh after 24 hr treatments. (B) The mRNA expressions of SCD in response to 8 μM 7KCh, 1 μM sterculic acid, 1 μM stearic acid, or the combinations of 7KCh with either sterculic acid or stearic acid. Error bars indicate the standard deviations. n=4.
# as §3
# To determine the effect of 7KCh on SCD expression ARPE-19 cells were incubated with 4 μM 7KCh for 24 hr. 7KCh suppressed SCD mRNA expression by approximately 60-70% (FIG. 18A). […] Treatment of the cells with 8 μM 7KCh and 1 μM sterculic acid further suppress SCD expression to 86% (FIG. 18B). […] This is the only instance where 7KCh and sterculic acid worked synergistically rather than antagonistically.
# [5] = 7-ketocholesterol-mediated cytotoxicity, 24-well CCK-8 viability; settings: human
# ARPE19 cells [6] = assay: Cell Counting Kit-8 viability assay, 15 μM 7KCh-induced cytotoxicity
# Protocol: 4×10^4 cells were seeded onto wells of a 96 well plate. […] Cell viability was determined as celluar dehydrogenase activity and expressed as the percentage of compound treated cells relative to that of untreated controls. error bar: standard deviation, n=4.
# The kit allows sensitive colorimetric assays for the determination of the number of viable cells in cell proliferation and cytotoxicity assays. The amount of the formazan dye generated by the activity of dehydrogenases in cells is directly proportional to the number of living cells.
# 1) Cells were cultivated in a 96 well cell plate (Costar#3599, Corning Incorp, Corning, N.Y.).
# 2) The cell suspension (40,000 cells/100 μL) were added to 100 μL culture media per well and stood for 15 min at room temperature and cultured at 37° C. in a humidified 5% CO2 atmosphere.
# 3) Approximately 19 hr after seeding, when the cells were fully confluent, the cells were treated with either DMSO or 1 μM fatty acid in 200 μL of serum free media and subsequently added with 15 μM 7KCh in HPBCD. Then, the plate was swirled for mixing. The cells were also treated with DMSO and HPBCD, which served as vehicle control. The final DMSO and HPBCD concentrations in the media were in the range of 0.1% and 0.0675%, respectively.
# Cell viability was expressed as the percentage of compound treated cells relative to that of untreated controls. Prior to measure cell viability, the cells were imaged live by Nikon TE 2000-U inverted fluorescent microscope.
# ARPE19 cells [7] = assay: Phase-contrast images of cells after co-treatment with 15 μM 7KCh; type: cell-based, human; settings: 1 μM fatty acid + 15 μM 7KCh, 24 hr
# Source text: FIG. 8 depicts phase-contrast images of ARPE19 cells at 24 hr after sterculic acid co-treatment with 7KCh.
# ARPE-19 cells [8] = assay: Fatty acids against 7KCh-mediated cell death (CCK8); type: cell-based; settings: 12 μM 7KCh for 24 hr; tested 0.1, 0.5, 1, 5 and 10 μM
# Protocol: FIGS. 12A-12C depict ARPE-19 cell viability in response to 12 μM 7KCh with or without 0.1-5 μM (A) sterculic acid and (B) stearic acid after 24 hr treatments. Error bars indicate the standard deviations. n=3-5. Two-tailed Student's t-test. (C) Representative images of changes in cell morphology in response to 12 μM 7KCh with or without 1 μM sterculic acid and stearic acid after 24 hr treatments.
# as §2
# The cell viability was determined by the dehydrogenase activity of the ARPE-19 cells using Cell Counting Kit-8 (CCK8, Dojindo, Gaithersburg, Md.) according to manufacturer's protocol.
# The lowest effective concentrations of fatty acids that offset the 7KCh-mediated cell death were determined. […] Table 3 lists the lowest concentrations of these fatty acids required to maintain full cell viability against 12 μM 7KCh treatment. All unsaturated fatty acids protected against 7KCh-induced cell death. […] DHA, α-linolenic, and linoleic acid prevented 7KCh-mediated cell death at 5 μM but the rest of unsaturated fatty acids and dihydrosterculic acid required 10 μM to be protective.
# D407 cells = assay: 7-ketocholesterol-mediated cytotoxicity, 24-well CCK-8 viability; settings: 5 μM co-treatment with 11 μM 7KCh, 24 hr
# ARPE19 cells [9] = assay: Microelectronic cell sensor assay (RT-CES), 7KCh-induced cytotoxicity; settings: 1 μM fatty acid + 15 μM 7KCh, serum free media
# Protocol: 4×10^4 cells were seeded onto wells of 16× microtiter plates. […] Cell viability was determined as a cell index (CI) calculated from the impedance of each well automatically by the RT-CES system once per hr until the end of the experiment. The data was normalized at the point immediately prior to compound treatment.
# RT-CES® System is a cell-based assay system that monitors cellular events by measuring the electronic impedance of sensor electrodes integrated on the bottom of microtiter E-Plates. The presence of the cells will lead to an increase in the electrode impedance. The more cells attached to the sensor, the higher the impedance that could be monitored with RT-CES.
# 1) Cells were cultivated in the ACEA's 16X E-plate device containing microelectrodes at the bottom of each well to measure contact area and electrical properties of adherent cells. […]
# 4) Cell growth was monitored periodically (every 1 hr) for indicated durations via calculation of a “cell index” (reflect to the surface area covered by the cells) in each well. […]
# 6) The sensor devices were put into the incubator again and the cells were continuously monitored cellular status changes.
# 7) Cell viability was determined as a cell index (CI) calculated from the impedance of each well automatically by the RT-CES system once per hr until the end of the experiment. […]
# ARPE19 cells [10] = assay: 7-ketocholesterol-mediated cytotoxicity, 24-well CCK-8 viability and images; settings: 24 hr
compound,measurement,setting,value
"CC(C)CCC[C@@H](C)[C@H]1CC[C@H]2[C@@H]3C(=O)C=C4C[C@@H](O)CC[C@]4(C)[C@H]3CC[C@]12C [7KCh, 7-Ketocholesterol]",loss in cell viability,ARPE19 cells [1]; 15 μM 7KCh,40-50%
same,VEGF mRNA expression,"ARPE-19 cells [2]; 8 μM 7KCh alone or with 1 μM fatty acid, 24 hr, FIG. 13A",4 fold
same,IL-6 mRNA expression,"ARPE-19 cells [2]; 8 μM 7KCh alone or with 1 μM fatty acid, 24 hr, FIG. 13B",22 fold
same,GRP78 mRNA expression,"ARPE-19 cells [2]; 8 μM 7KCh alone or with 1 μM fatty acid, 24 hr, FIG. 13C",4 fold
same,CHOP mRNA expression,"ARPE-19 cells [2]; 8 μM 7KCh alone or with 1 μM fatty acid, 24 hr, FIG. 13D",15 fold
same,induction of VEGF mRNA,"ARPE-19 cells [2]; 8 μM 7KCh alone or with 1 μM fatty acid, FIG. 14A",5.5 fold
same,induction of IL-1β mRNA,"ARPE-19 cells [2]; 8 μM 7KCh alone or with 1 μM fatty acid, FIG. 14B",6.7 fold
same,induction of IL-6 mRNA,"ARPE-19 cells [2]; 8 μM 7KCh alone or with 1 μM fatty acid, FIG. 14C",21 fold
same,induction of IL-8 mRNA,"ARPE-19 cells [2]; 8 μM 7KCh alone or with 1 μM fatty acid, FIG. 14D",4.7 fold
same,induction of TNF-α mRNA,"ARPE-19 cells [2]; 8 μM 7KCh alone or with 1 μM fatty acid, FIG. 15A",2.7 fold
same,induction of TGF-β1 mRNA,"ARPE-19 cells [2]; 8 μM 7KCh alone or with 1 μM fatty acid, FIG. 15B",1.3 fold
same,induction of GRP78 mRNA,"ARPE-19 cells [2]; 8 μM 7KCh alone or with 1 μM fatty acid, FIG. 15C",5.4 fold
same,induction of CHOP mRNA,"ARPE-19 cells [2]; 8 μM 7KCh alone or with 1 μM fatty acid, FIG. 15D",12 fold
same,secreted IL-6 protein expression,ARPE-19 cells [3],1.8 fold
same,secreted IL-8 protein expression,ARPE-19 cells [3],1.7 fold
same,secreted VEGF protein expression,ARPE-19 cells [3],1.6 fold
same,suppression of SCD mRNA expression,[4],60-70%
same,CC50 at 24 h,[5],11 µM
same,loss in cell viability,"ARPE19 cells [6]; 15 μM 7KCh, 24 hr, CCK-8",50-60%
CCCCCCCC/C=C\CCCCCCCC(=O)O [oleic acid],increase of cell viability compared to 7KCh alone treatment,ARPE19 cells [1]; 1 μM fatty acid + 15 μM 7KCh,10%
same,cell morphological changes compared to 7KCh alone,ARPE19 cells [7],more cells compared to 7KCh alone
same,CONC. (μM): lowest concentration required to maintain full cell viability against 7KCh,ARPE-19 cells [8],10 µM
same,effect on 7KCh-mediated mRNA induction (inflammatory response),"ARPE-19 cells [2]; 1 μM fatty acid + 8 μM 7KCh, 24 hr, FIG. 13",either ineffective or enhanced
same,protection effect at 5 μM,D407 cells,slight effect; also recorded: not as significant comparing to sterculic acid
same,protective effect against cytotoxicity by 7KCh (summary of the viability assays),ARPE19 cells [6]; 1 μM fatty acid + 15 μM 7KCh,slight protective effect
same,increase of cell viability compared to 7KCh alone treatment,"ARPE19 cells [6]; 1 μM fatty acid + 15 μM 7KCh, 24 hr, CCK-8",10%
same,protection from 7KCh induced cytotoxicity (cell index),ARPE19 cells [9],slight protective effect
same,protection of cell confluency and morphology (images),ARPE19 cells [10]; 0.5 μM co-treatment with 12 μM 7KCh,no effect
same,protection of cell confluency and morphology (images),ARPE19 cells [10]; 1 μM co-treatment with 12 μM 7KCh,slight effect; also recorded: do not have such protection effect
same,protection effect at 5 μM,ARPE19 cells [10]; 5 μM co-treatment with 12 μM 7KCh,slight effect; also recorded: slight protection

# Reference: US8993626B2, “Methods of treatment using sterculic acid” (The United States of America, as represented by the …, priority 2010, dated 2015)
